Data reported in patent US6573258B2, “Photodynamic porphyrin antimicrobial agents” (Frontier Scientific, Inc., priority 2000, dated 2003).

Legend:
E. coli cells [1] = experiment: Growth inhibition after 5 min incubation with porphyrin and white-light irradiation; format: cell-based, Escherichia coli; conditions: for concentration photoinducing significant bacteriostatic and bactericidal action: both cell strains (S. aureus and E. coli)
Procedure: (§1) The abilities of various examples of the porphyrins of the instant invention to kill Gram-negative and Gram-positive bacteria were tested against that of T4MPyP. Each of the compounds was incubated with E. coli and S. aureus cells for 5 minutes, following which the samples were irradiated with white light for varying lengths of time.
(§2) Escherichia coli strain O4 (wild type), and methycillin-resistant Staphylococcus aureus, strain MRSA 110, were grown aerobically at 37° C. in brain heart infusion broth (BHI, Difco, Detroit, Mich.). The cells in the stationary phase of growth were harvested by centrifugation (2,000 g for 15 min) of the broth cultures, washed twice with 10 mM PBS at pH=7.4, containing 2.7 mM KCl and 0.14 M NaCl, and suspended in PBS at a density of 10^8-10^9 cells/ml (absorbance of about 0.7 at 650 nm). Aliquots of 5 ml of the cell suspension were incubated with 1 μM porphyrins for 5 min in the dark at room temperature. After incubation the suspensions were centrifuged and the cell pellets were collected immediately or washed with PBS and centrifuged again for one or three times.
(§3) The toxic effects of T4MPyP and its analogues on E. coli and S. aureus cells were evaluated by measuring the extent of growth inhibition (bacteriostatic effect) and reduction of survival (cytocidal/bacteriocidal effect) following treatment with porphyrin in the dark or upon light exposure.
(§4) In all cases, 5 ml of the cell suspension (10^8-10^9 cells/ml) were incubated for 5 min in the dark at room temperature with the selected photosensitizer at concentrations ranging between 0.5 and 10 μM. After dark-incubation, some of the cell samples were irradiated with white light (150 mW/cm^2). During irradiation, (up to 30 min) the cells were kept at 37° C. and magnetically stirred. The treated and untreated control cells were diluted with BHI and maintained at 37° C. while the absorbance of the suspension at 650 nm was monitored at predetermined time periods for determining growth curves. The percent of growth inhibition in the treated cells was calculated by the following equation: […]
(§5) where AX, and AC are the absorbances measured after 3 h incubation, respectively, for the treated and control cell suspensions, respectively, while A0 represents the initial absorbance and the AC is that of the control cell suspension after 5 hours incubation. Cell survival was determined by plating serially diluted aliquots of treated and untreated cells on brain heart agar and counting the number of colonies after 18-24 h incubation at 37° C.

S. aureus cells [2] = experiment: as above; format: cell-based, Staphylococcus aureus
Procedure: as §1, §2, §3
[…] After dark-incubation, some of the cell samples were irradiated with white light (150 mW/cm^2). During irradiation, (up to 30 min) the cells were kept at 37° C. and magnetically stirred. The treated and untreated control cells were diluted with BHI and maintained at 37° C. while the absorbance of the suspension at 650 nm was monitored at predetermined time periods for determining growth curves. The percent of growth inhibition in the treated cells was calculated by the following equation:
as §5

E. coli cells [3] = experiment: Decrease of cell survival (colony counting) after white-light irradiation; format: cell-based, Escherichia coli; conditions: 1 μM porphyrin; for DECREASE OF SURVIVAL (log): 5 min dark incubation, 15 min white light (150 mW/cm^2)
Procedure: as §2, §3, §4, §5

[4] = Fluorescence quantum yields; format: physicochemical; conditions: for ΦF (PBS), fluorescence quantum yield: in PBS; for ΦF (SDS), fluorescence quantum yield: in aqueous 2% SDS
Procedure: Ground-state absorption spectra of the porphyrins (ca. 5 μM in phosphate buffered saline (PBS, pH=7.4) were recorded with a Lambda 5 Perkin-Elmer spectrophotometer. Fluorescence spectra, corrected for the instrumental response, were recorded with a Perkin-Elmer (model LS) or a Spex (Fluorolog F112) spectrofluorimeter. Fluorescence quantum yields ((IF) of the porphyrin derivatives in PBS and in water containing 2% sodium dodecylsulfate (a detergent, hereinafter “SDS”) were determined by measuring the area of the emission spectrum (600-800 nm range, excitation at 560 nm) and using tetra-n-propylporphycene in toluene as a reference (ΦF=0.38). Braslavsky et al, J. Photochem. Photobiol. B: Biol., 40:191-198 (1997). In all cases, the absorbance of the sample and the reference solution were kept below 0.1 at the excitation wavelength to minimize inner filter effects.

[5] = Fluorescence decay times (phase-shift method); format: physicochemical; conditions: ca. 5 μM, air-equilibrated buffer pH 7.4, λexc = 420 nm, λem > 600 nm; for A1, relative weight of fast component: dihydrochloride salt
Procedure: Fluorescence decay times of the porphyrin samples were measured by means of a Spex Fluorolog-τ2 spectrofluorimeter based on the phase-shift method. The frequency response curves (phase-shift and demodulation ratio vs. frequency) were globally analyzed.

[6] = Triplet state properties by laser flash photolysis; format: physicochemical; conditions: phosphate-buffered solution; for φT, triplet quantum yield: ε920 estimated by total depletion method
Procedure: Laser flash photolysis experiments were carried out by use of the setup previously described in Gomer, et al., with excitation wavelengths of 355 and 420 nm. Gorner, et al., Photoinduced electron transfer between styrylanthracenes and electron donors and acceptors in acetonitrile, J. Chem. Soc. Faraday Trans., vol. 88, pp. 29-34 (1992).
The transient spectra of the porphyrins in buffer solutions were recorded upon laser flash photolysis excitation at 355 and 420 nm. […] The decay (growth) of the signal (bleaching) occurred according to first-order kinetics and led to a complete recovery of the ground state with a lifetime of 91 μs. […] This also allowed the triplet quantum yield (φT) to be determined (see Table 3), after calibration of the experimental setup by use of an optically-matched solution of benzophenone in acetonitrile.

[7] = Photosensitized photooxidation of NATA; conditions: 10 μM NATA; for ΦSDS × 10^3, quantum yield for photo-oxidation of NATA: aqueous 2% SDS; for ΦPBS × 10^3, quantum yield for photo-oxidation of NATA: phosphate buffered solution
Procedure: The photosensitizing activity of the various porphyrins was tested by measuring their efficiency in promoting the photooxidation of N-acetyl-L-tryptophanamide (NATA, Aldrich Chem. Co.) as a model biological substrate. Toward this aim, 10 μM NATA in PBS or in water containing 2% SDS was irradiated in the presence of 5 μM porphyrin. The irradiations were performed with 515±10 nm-light isolated by means of an interference filter (Balzers, Liechtenstein), while the solution (2 ml) was magnetically stirred in a quartz cuvette of 1-cm optical path and kept at 25° C. The photosensitized modification of NATA was followed by measuring the decrease in the intensity of its fluorescence emission spectrum (300-450 nm) upon excitation with 290 nm-light at various irradiation times. Plots of in F°/F (where F° and F represent the fluorescence intensity at time 0 and t, respectively) vs. the irradiation time allowed the first-order rate constants of the photo-process to be derived.
The intensity of the incident light was measured by using Aberchrome 999P in toluene as an actinometer. Heller, EPA Newslett., 29:49-60 (1987). This parameter was used to calculate the quantum yields of NATA photooxidation sensitized by the different porphyrins.

S. aureus cells [8] = experiment: Dark toxicity of porphyrins on bacteria cells; format: cell-based, Staphylococcus aureus; conditions: 10 μM, 5 min incubation in the dark
Procedure: as §3, §4, §5

E. coli cells [9] = experiment: Dark toxicity of porphyrins on bacteria cells; format: cell-based, Escherichia coli; conditions: 10 μM, 5 min incubation in the dark
Procedure: as §3, §4, §5

[10] = 0.5 μM, incubated 5 min, white light 5 min
[11] = 0.5 μM, incubated 5 min, white light 10 min
[12] = Table 5: 0.5 μM, 5 min incubation, 5 min white light (150 mW/cm^2)
[13] = Table 5: 1 μM, 5 min incubation, 5 min white light (150 mW/cm^2)

CCCCCCCCCCCCCC[n+]1ccc(-c2c3nc(c(-c4cc[n+](C)cc4)c4ccc([nH]4)c(-c4cc[n+](C)cc4)c4nc(c(-c5cc[n+](C)cc5)c5ccc2[nH]5)C=C4)C=C3)cc1.Cl.Cl.[Cl-].[Cl-].[Cl-].[Cl-] [Porphyrin C14, 5-(4-N-tetradecylpyridyl)-10,15,20-tris(4-N-methylpyridyl)-21H,23H-porphine tetrachloride dihydrochloride salt]
Growth inhibition (%) E. coli (E. coli cells [1]; [10]): 81.8% | Growth inhibition (%) E. coli (E. coli cells [1]; [11]): 100% | Growth inhibition (%) E. coli (E. coli cells [1]; [12]): 82% | concentration photoinducing significant bacteriostatic and bactericidal action (E. coli cells [1]): ten-fold lower concentration | Growth inhibition (%) S. aureus (S. aureus cells [2]; [10]): 72.7% | Growth inhibition (%) S. aureus (S. aureus cells [2]; [11]): 88.9% | Growth inhibition (%) S. aureus (S. aureus cells [2]; [12]): 73% | DECREASE OF SURVIVAL (log) (E. coli cells [3]): −4.35 ± 0.45 log | drop in survival of E. coli cells (E. coli cells [3]; 15 min irradiation): 4 log | ΦF (PBS), fluorescence quantum yield [4]: 0.019 | ΦF (SDS), fluorescence quantum yield [4]: 0.022 | A2, relative weight of slow component [5]: 98% | τ1, fluorescence decay time of fast component [5]: 1.0 ns | τ2, fluorescence decay time of slow component [5]: 6.5 ns | A1, relative weight of fast component [5]: 2% | λmax of transient spectrum [6]: 480 nm | λmin of transient spectrum [6]: 425 nm | φ×ε920 [6]: 9762 M⁻¹ cm⁻¹ | τ^N2, triplet lifetime [6]: 70 μs | τ^air, triplet lifetime [6]: 20 μs | φT, triplet quantum yield [6]: 0.48 | ΦSDS × 10^3, quantum yield for photo-oxidation of NATA [7]: 0.71 ± 0.03 | ΦPBS × 10^3, quantum yield for photo-oxidation of NATA [7]: 0.66 ± 0.10 | inhibition of bacterial cell growth in the dark (S. aureus cells [8]): complete inhibition | inhibition of bacterial cell growth in the dark (E. coli cells [9]): complete inhibition

CCCCCCCCCCCCCCCCCC[n+]1ccc(-c2c3nc(c(-c4cc[n+](C)cc4)c4ccc([nH]4)c(-c4cc[n+](C)cc4)c4nc(c(-c5cc[n+](C)cc5)c5ccc2[nH]5)C=C4)C=C3)cc1.Cl.Cl.[Cl-].[Cl-].[Cl-].[Cl-] [Porphyrin C18, 5-(4-N-octadecylpyridyl)-10,15,20-tris(4-N-methylpyridyl)-21H,23H-porphine tetrachloride dihydrochloride salt]
Growth inhibition (%) E. coli (E. coli cells [1]; [10]): 26% | Growth inhibition (%) E. coli (E. coli cells [1]; [11]): 56.6% | Growth inhibition (%) E. coli (E. coli cells [1]; 1 μM, incubated 5 min, white light 5 min): 57.9% | Growth inhibition (%) E. coli (E. coli cells [1]; 1 μM, incubated 5 min, white light 10 min): 95.7% | Growth inhibition (%) E. coli (E. coli cells [1]; [12]): 26% | Growth inhibition (%) E. coli (E. coli cells [1]; [13]): 58% | concentration photoinducing significant bacteriostatic and bactericidal action (E. coli cells [1]): ten-fold lower concentration | Growth inhibition (%) S. aureus (S. aureus cells [2]; 0.1 μM, incubated 5 min, white light 5 min): 12.7% | Growth inhibition (%) S. aureus (S. aureus cells [2]; 0.1 μM, incubated 5 min, white light 10 min): 20.2% | Growth inhibition (%) S. aureus (S. aureus cells [2]; [10]): 41.4% | Growth inhibition (%) S. aureus (S. aureus cells [2]; [11]): 58.1% | Growth inhibition (%) S. aureus (S. aureus cells [2]; [12]): 42% | Growth inhibition (%) S. aureus (S. aureus cells [2]; [13]): 59% | DECREASE OF SURVIVAL (log) (E. coli cells [3]): −2.78 ± 0.62 log | ΦF (PBS), fluorescence quantum yield [4]: 0.022 | ΦF (SDS), fluorescence quantum yield [4]: 0.024 | A2, relative weight of slow component [5]: 97% | τ1, fluorescence decay time of fast component [5]: 1.4 ns | τ2, fluorescence decay time of slow component [5]: 9.0 ns | A1, relative weight of fast component [5]: 3% | λmax of transient spectrum [6]: 470 nm | λmin of transient spectrum [6]: 420 nm | φ×ε920 [6]: 2700 M⁻¹ cm⁻¹ | τ^N2, triplet lifetime [6]: 74 μs | τ^air, triplet lifetime [6]: 21 μs | φT, triplet quantum yield [6]: 0.17 | ΦSDS × 10^3, quantum yield for photo-oxidation of NATA [7]: 0.80 ± 0.04 | ΦPBS × 10^3, quantum yield for photo-oxidation of NATA [7]: 0.14 ± 0.01 | inhibition of bacterial cell growth in the dark (S. aureus cells [8]): complete inhibition | inhibition of bacterial cell growth in the dark (E. coli cells [9]): complete inhibition

C[n+]1ccc(-c2c3nc(c(-c4cc[n+](C)cc4)c4ccc([nH]4)c(-c4cc[n+](Cc5ccccc5)cc4)c4nc(c(-c5cc[n+](C)cc5)c5ccc2[nH]5)C=C4)C=C3)cc1.Cl.Cl.[Cl-].[Cl-].[Cl-].[Cl-] [mono-benzyl, 5-(4-N-benzylpyridyl)-10,15,20-tris(4-N-methylpyridyl)-21H,23H-porphine tetrachloride dihydrochloride salt]
Growth inhibition (%) E. coli (E. coli cells [1]; 10 μM, incubated 5 min, white light 5 min): 54.1% | Growth inhibition (%) E. coli (E. coli cells [1]; 10 μM, incubated 5 min, white light 10 min): 100% | photodynamic effectiveness relative to base porphyrin (E. coli cells [1]; same conditions as base porphyrin): about twice as effective as the base porphyrin
